Where a SMILES comes first, the peptide text is derived from it. [ ]: non-standard residue; d: D form. Phe(4-NO2) = N[C@@H](Cc1ccc([N+](=O)[O-])cc1)C(=O)O; Phe(4-Cl) = N[C@@H](Cc1ccc(Cl)cc1)C(=O)O; Phe(4-NH2) = Nc1ccc(C[C@H](N)C(=O)O)cc1
Assays:
[1] = target: T1, NK-1 receptor (Cavia porcellus, UniProt P30547); experiment: NK-1 receptor binding (125I-Bolton-Hunter substance P) in guinea pig lung membranes; details: 0.1 nM 125I-Bolton-Hunter Lys-3 substance P, mean ± S.E.M.
T1 construct: tissue Keystone Biologicals, Cleveland, OH; host or cells: guinea pig lung
T1 sequence (P30547 whole entry): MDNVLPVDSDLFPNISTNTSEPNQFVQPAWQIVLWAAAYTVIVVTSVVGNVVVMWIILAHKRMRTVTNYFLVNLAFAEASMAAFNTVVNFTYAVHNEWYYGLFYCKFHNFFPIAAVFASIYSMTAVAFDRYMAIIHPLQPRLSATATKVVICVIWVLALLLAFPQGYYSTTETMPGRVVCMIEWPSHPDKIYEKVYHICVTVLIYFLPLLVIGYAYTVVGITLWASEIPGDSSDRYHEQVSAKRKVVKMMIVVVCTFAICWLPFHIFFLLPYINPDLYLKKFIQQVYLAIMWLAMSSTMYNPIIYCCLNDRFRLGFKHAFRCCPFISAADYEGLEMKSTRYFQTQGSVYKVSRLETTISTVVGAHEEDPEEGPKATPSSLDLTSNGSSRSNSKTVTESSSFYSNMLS
Procedure: (§1) Receptor binding assays were performed in crude tissue membranes. The NK-1 receptor binding affinity of proposed tachykinin antagonists was evaluated in guinea pig lungs (Keystone Biologicals, Cleveland, OH, kept frozen at -80° C. until use). Affinity for the NK-2 receptor was evaluated in HSKR-1 cells which are mouse 3T3 fibroblasts expressing the human jejunal NK-2 receptor. Tissues or cells were homogenized with a Polytron in 15 volumes of 50 mM Tris-HCl buffer (pH 7.4, 4° C.) containing 120 mM NaCl and 5 mM KCl and centrifuged at 48,000×g for 12 min. at 4° C. The pellet was resuspended in 15 volumes of 50 mM Tris-HCl buffer containing 10 mM EDTA and 300 mM KCl then set on ice for 30 min. The suspension was cetrifuged as above and the pellet washed by resuspension and cetrifugation two additional times in 50 mM Tris-HCl buffer (pH 7.4, 4° C.). The final pellet was resuspended in a concentration of 20 mg/ml in incubation buffer then kept at room temperature for at least 15 min prior to use. Receptor binding was initiated by addition of 250 μl membrane preparation (final protein concentration; lungs=286 μg/tube, HSKR-1 cells=100 μg/tube) in duplicate to 0.1 nM of the following radioligands: for NK-1 receptor assays, ^125 I-Bolton-Hunter Lys-3 labeled substance P (New England Nuclear, specific activity, 2200 Ci/mmol); for NK-2 receptor assays, ^125 iodohistidyl-1-neurokinin A (Amersham, specific activity, 2000 Ci/mmol) in a final volume of 500 μl of buffer containing 50 mM Tris-HCl (pH 7.4 at room temperature), 0.1% bovine serum albumin, 2 mM MnCl2, 40 μg/ml bacitracin, 4 μg/ml leupeptin and chymostatin, 1 μM thiorphan and various doses of the tachykinin antagonists. Incubations were performed at room temperature for 90 min (NK-1 receptor assays) or 2 hr (NK-2 receptor assays); binding was terminated by addition of 50 mM Tris-HCl buffer (pH 7.4, 4° C.) and filtration under vacuum through GF/B filters presoaked with 0.1% polyethyleneimine (NK-1 receptor assays) or 0.5% bovine serum albumin (NK-2 receptor assays). Nonspecific binding was defined as binding in the presence of 1 μM substance P (NK-1 receptor assays) or neurokinin A (NK-2 receptor assays) (Peptides International, Inc., Louisville, Ky.). Specific binding was calculated by subtracting nonspecific binding from total binding and corresponded to 70-90% of total binding. Data were analyzed and IC50 values generated by nonlinear regression using an iterative curve fitting program (GraphPAD Inplot, San Diego, Calif.). Protein was determined by the method of Lowry.

[2] = target: T2, human jejunal NK-2 receptor (Homo sapiens, UniProt P21452); experiment: NK-2 receptor binding (125I-neurokinin A) in HSKR-1 cell membranes; details: HSKR-1 cells (mouse 3T3 fibroblasts expressing human jejunal NK-2 receptor); 0.1 nM 125I-iodohistidyl-1-neurokinin A; mean ± S.E.M.
T2 construct: expressed in transfected cells; host or cells: HSKR-1 (mouse 3T3 fibroblasts)
T2 sequence (P21452 1-398): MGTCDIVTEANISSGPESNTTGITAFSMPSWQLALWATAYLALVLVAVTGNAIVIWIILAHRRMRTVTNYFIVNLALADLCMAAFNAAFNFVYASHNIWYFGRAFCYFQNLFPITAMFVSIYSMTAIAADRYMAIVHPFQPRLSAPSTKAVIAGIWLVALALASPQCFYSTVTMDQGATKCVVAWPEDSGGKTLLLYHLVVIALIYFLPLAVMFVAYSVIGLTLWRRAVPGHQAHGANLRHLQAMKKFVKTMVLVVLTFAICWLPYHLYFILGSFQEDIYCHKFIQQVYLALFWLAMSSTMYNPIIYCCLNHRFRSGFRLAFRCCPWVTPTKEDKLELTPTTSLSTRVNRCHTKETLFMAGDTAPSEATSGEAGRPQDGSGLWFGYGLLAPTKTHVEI
Procedure: as §1

| Structure (SMILES) | IC50 [1] | IC50 [2] |
| --- | --- | --- |
| CC(C)C[C@@H]1NC(=O)[C@@H](Cc2c[nH]c3ccccc23)NC(=O)[C@H](Cc2c[nH]c3ccccc23)NC(=O)CNC(=O)[C@H](Cc2c[nH]c3ccccc23)NC(=O)[C@H](CCCNC(=N)N)NC1=O [cyclo[Trp--trp--Leu--Arg--Trp--Gly], cyclo[Trp-trp-Leu-Arg-Trp-Gly]] (cyclo(GW[dW]LRW)) | 4830 ± 297 nM | 4.7 ± 0.15 nM |
| CC(C)C[C@@H]1NC(=O)[C@@H](Cc2c[nH]c3ccccc23)NC(=O)[C@H](Cc2ccc(O)cc2)NC(=O)[C@H](C)NC(=O)[C@H](Cc2ccc(O)cc2)NC(=O)[C@H](CCCNC(=N)N)NC1=O [cyclo[Tyr--trp--Leu--Arg--Tyr--Ala], cyclo[Tyr-trp-Leu-Arg-Tyr-Ala]] (cyclo(AY[dW]LRY)) |  | 206 ± 15 nM |
| CC(C)C[C@@H]1NC(=O)[C@@H](Cc2c[nH]c3ccccc23)NC(=O)[C@H](Cc2ccc(O)cc2)NC(=O)CNC(=O)[C@H](Cc2ccc(O)cc2)NC(=O)[C@H](CCCNC(=N)N)NC1=O [cyclo[Tyr--trp--Leu--Arg--Tyr--Gly], cyclo[Tyr-trp-Leu-Arg-Tyr-Gly]] (cyclo(GY[dW]LRY)) | > 10000 nM | 18.9 ± 1.58 nM |
| CC(C)C[C@@H]1NC(=O)[C@@H](Cc2c[nH]c3ccccc23)NC(=O)[C@H](Cc2ccc(O)cc2)NC(=O)[C@@H](C)NC(=O)[C@H](Cc2c[nH]c3ccccc23)NC(=O)[C@H](CCCNC(=N)N)NC1=O [cyclo[Tyr--trp--Leu--Arg--Trp--ala]] (cyclo(LRW[dA]Y[dW])) |  | 7.99 ± 1.02 nM |
| N=C(N)NCCC[C@@H]1NC(=O)[C@@H]2CCCN2C(=O)[C@@H](Cc2ccccc2)NC(=O)[C@H](Cc2ccccc2)NC(=O)CNC(=O)[C@H](Cc2ccccc2)NC1=O [cyclo[Phe--phe--Pro--Arg--Phe--Gly], cyclo[Phe-phe-Pro-Arg-Phe-Gly]] (cyclo(FGF[dF]PR)) | 9310 ± 2070 nM | 674 ± 57 nM |
| CC(C)C[C@@H]1NC(=O)[C@@H](Cc2c[nH]c3ccccc23)NC(=O)[C@H](Cc2ccc(O)cc2)NC(=O)CNC(=O)[C@H](Cc2ccc(N)cc2)NC(=O)[C@H](CCCNC(=N)N)NC1=O [cyclo[Tyr-trp-Leu-Arg-(p-NH2 -Phe)-Gly]] (cyclo(GY[dW]LR[Phe(4-NH2)])) | > 10000 nM | 20.2 ± 2.03 nM |
| CC(C)C[C@@H]1NC(=O)[C@H](CCC(N)=O)NC(=O)[C@@H](Cc2ccc(O)cc2)NC(=O)CNC(=O)[C@H](Cc2c[nH]c3ccccc23)NC(=O)[C@H](CCCNC(=N)N)NC1=O [cyclo[tyr--Gln--Leu--Arg--Trp--Gly], cyclo[tyr-Gln-Leu-Arg-Trp-Gly]] (cyclo(G[dY]QLRW)) |  | 407 ± 52 nM |
| CC(C)C[C@@H]1NC(=O)[C@@H](Cc2c[nH]c3ccccc23)NC(=O)[C@H](Cc2ccc(O)cc2)NC(=O)CNC(=O)[C@H](Cc2ccc([N+](=O)[O-])cc2)NC(=O)[C@H](CCCNC(=N)N)NC1=O [cyclo[Tyr-trp-Leu-Arg-(p-NO2 -Phe)-Gly]] (cyclo(GY[dW]LR[Phe(4-NO2)])) | > 10000 nM | 11.7 ± 0.44 nM |
| CC(C)C[C@@H]1NC(=O)[C@@H](Cc2c[nH]c3ccccc23)NC(=O)[C@H](Cc2ccc(O)cc2)NC(=O)CNC(=O)[C@H](Cc2ccc(Cl)cc2)NC(=O)[C@H](CCCNC(=N)N)NC1=O [cyclo[Tyr-trp-Leu-Arg-(p-Cl-Phe)-Gly]] (cyclo(GY[dW]LR[Phe(4-Cl)])) | ~10000 nM | 13.3 ± 1.31 nM |
| CC(C)C[C@@H]1NC(=O)[C@@H](Cc2c[nH]c3ccccc23)NC(=O)[C@@H](Cc2ccc(O)cc2)NC(=O)CNC(=O)[C@H](Cc2c[nH]c3ccccc23)NC(=O)[C@H](CCCNC(=N)N)NC1=O [cyclo[tyr--trp--Leu--Arg--Trp--Gly]] (cyclo(G[dY][dW]LRW)) | > 10000 nM | 4.97 ± 0.42 nM |
| N=C(N)NCCC[C@@H]1NC(=O)[C@@H]2CCCN2C(=O)[C@@H](Cc2c[nH]c3ccccc23)NC(=O)[C@H](Cc2ccc(O)cc2)NC(=O)CNC(=O)[C@H](Cc2c[nH]c3ccccc23)NC1=O [cyclo[Tyr--trp--Pro--Arg--Trp--Gly], cyclo[Tyr-trp-Pro-Arg-Trp-Gly]] (cyclo(GY[dW]PRW)) | > 10000 nM | 5.13 ± 0.36 nM |
| CC(C)C[C@@H]1NC(=O)[C@@H](Cc2c[nH]c3ccccc23)NC(=O)[C@H](Cc2ccc(O)cc2)NC(=O)CNC(=O)[C@@H](Cc2c[nH]c3ccccc23)NC(=O)[C@H](CCCNC(=N)N)NC1=O [cyclo[Tyr--trp--Leu--Arg--trp--Gly]] (cyclo(GY[dW]LR[dW])) | > 10000 nM | 193 ± 11.5 nM |
| CC(C)C[C@@H]1NC(=O)CNC(=O)[C@H](Cc2c[nH]c3ccccc23)NC(=O)[C@H](CCCNC(=N)N)NC(=O)[C@H](CC(C)C)NC(=O)CNC(=O)[C@H](Cc2c[nH]c3ccccc23)NC(=O)[C@H](CCCNC(=N)N)NC1=O [cyclo[Leu-Arg-Trp-Gly-Leu-Arg-Trp-Gly]] (cyclo(GLRWGLRW)) |  | 768 ± 75 nM |
| CC(C)C[C@@H]1NC(=O)[C@@H](Cc2c[nH]c3ccccc23)NC(=O)[C@H](Cc2ccc(O)cc2)NC(=O)[C@H](Cc2c[nH]c3ccccc23)NC(=O)CNC(=O)[C@H](CCCNC(=N)N)NC1=O [cyclo[Tyr--trp--Leu--Arg--Gly--Trp], cyclo[Tyr-trp-Leu-Arg-Gly-Trp]] (cyclo(GWY[dW]LR)) |  | 360 ± 21 nM |
| C[C@@H]1NC(=O)[C@@H](Cc2c[nH]c3ccccc23)NC(=O)[C@H](Cc2ccc(O)cc2)NC(=O)CNC(=O)[C@H](Cc2c[nH]c3ccccc23)NC(=O)[C@H](CCCNC(=N)N)NC1=O [cyclo[Tyr--trp--Ala--Arg--Trp--Gly], cyclo[Tyr-trp-Ala-Arg-Trp-Gly]] (cyclo(ARWGY[dW])) |  | 56.7 ± 5.45 nM |
| CC(C)C[C@@H]1NC(=O)[C@@H](Cc2c[nH]c3ccccc23)NC(=O)[C@H](Cc2ccc(O)cc2)NC(=O)[C@H](C)NC(=O)[C@H](Cc2c[nH]c3ccccc23)NC(=O)[C@H](CCCNC(=N)N)NC1=O [cyclo[Tyr--trp--Leu--Arg--Trp--Ala], cyclo[Tyr-trp-Leu-Arg-Trp-Ala]] (cyclo(AY[dW]LRW)) |  | 9.9 ± 0.9 nM |
| CC(C)C[C@@H]1NC(=O)[C@H](Cc2c[nH]c3ccccc23)NC(=O)[C@H](Cc2ccc(O)cc2)NC(=O)CNC(=O)[C@H](Cc2c[nH]c3ccccc23)NC(=O)[C@H](CCCNC(=N)N)NC1=O [cyclo[Tyr--Trp--Leu--Arg--Trp--Gly]] (cyclo(GYWLRW)) | 10000 nM | 305 ± 31 nM |
| CC(C)C[C@@H]1NC(=O)[C@@H](Cc2c[nH]c3ccccc23)NC(=O)[C@H](Cc2ccc(O)cc2)NC(=O)[C@@H]2CCCN2C(=O)[C@H](Cc2c[nH]c3ccccc23)NC(=O)[C@H](CCCNC(=N)N)NC1=O [cyclo[Tyr--trp--Leu--Arg--Trp--Pro], cyclo[Tyr-trp-Leu-Arg-Trp-Pro]] (cyclo(LRWPY[dW])) | 5170 ± 507 nM | 30 ± 2.52 nM |
